This is an account of results in patent US9802904B2, “Inhibitors of the USP1/UAF1 deubiquitinase complex and uses thereof” (The United States of America, as represented by the …, priority 2012, dated 2017).

pEC50, pIC50: −log10 of the molar value.

The target of one assay is USP1/UAF1 (Homo sapiens (Human), UniProt O94782). Put plainly: qHTS assay for USP1/UAF1 activity (fluorometric, ubiquitin-rhodamine110). The conditions noted are these: USP1/UAF1 inhibition. The class given is biochemical. The method, then:
USP1/UAF1 activity was monitored in a fluorometric assay using ubiquitin-rhodamine110. Enzymatic reactions were conducted in an assay buffer (50 mM HEPES, pH 7.8, 0.5 mM EDTA, 100 mM NaCl, 1 mM TCEP, 0.1 mg/mL BSA, and 0.01% Tween-20) that contained 1 nM USP1/UAF1. […] The plates were incubated for 15 min to attain equilibrium, and then the enzymatic reaction was initiated by dispensing 1 μL of Ub-Rho solution (150 nM final concentration). The plates were directly transferred to a ViewLux high-throughput CCD imager (PerkinElmer), where kinetic measurements of rhodamine fluorescence were acquired using a 480 nm excitation/540 nm emission filter set. […] All screening operations were performed on a fully integrated robotic system (Kalypsys Inc., San Diego, Calif.) as described elsewhere. Plates containing DMSO only were included approximately every 50 plates throughout the screen to monitor any systematic trend in the assay signal associated with reagent dispenser variation or decrease in enzyme specific activity. PubChem AID: 651605.
For orientation: In qHTS, concentration-response curves come from the screen itself.

Another assay relates to H596 cells. Put plainly: Cytotoxicity assay in H596 cells (CCK-8 cell viability). The conditions noted are these: alone, 48 hr; read-out: EC50 of killing H596 cells. The class given is cell-based, human. The method, then: (§1) The H596 [human non-small cell lung cancer (NSCLC)] cell line was cultured in RFMI-1640 medium containing 10% fetal bovine serum (FBS) at 37° C. and 5% CO2. The HEK293T (human embryonic kidney 293T), U2OS (human osteosarcoma), and HCT116 (human colon cancer) cell lines were cultured in Dulbecco's modified Eagle's medium (DMEM) supplemented with 10% FBS at 37° C. and 5% CO2. All culture mediums contain 100 units/mL penicillin and 0.1 mg/mL streptomycin as antibiotics.
(§2) For cytotoxicity assays, 5×10^3 H596 cells were seeded in each well of the 96-well plate and grown for 24 hr in humidified incubator. […] In the combination assay, cisplatin was dissolved in saline solution and compound 81 was dissolved in DMSO. Equal volume of above solutions was added to each well and cells were incubated for 48 hr. Cells treated with equal volume of DMSO and saline were used as control and designated as 100% viability. The cell viability was measured by CCK-8 solution (Dojindo Molecular Technologies, Inc) as previously described (Chen, J., et al.).

For another assay, the system named is U2OS cells. Put plainly: Cytotoxicity assay in osteosarcoma U2OS cell line. The class given is cell-based, human. The settings on record: alone; read-out: EC50 of killing U2OS cells. The procedure:
as §1, §2
Cytotoxicity assays were run as described in Example 6 using the cisplatin-sensitive NSCLC H460 cell line and the osteosarcoma U2OS cell line.

Chain of USP1/UAF1 (O94782 whole entry): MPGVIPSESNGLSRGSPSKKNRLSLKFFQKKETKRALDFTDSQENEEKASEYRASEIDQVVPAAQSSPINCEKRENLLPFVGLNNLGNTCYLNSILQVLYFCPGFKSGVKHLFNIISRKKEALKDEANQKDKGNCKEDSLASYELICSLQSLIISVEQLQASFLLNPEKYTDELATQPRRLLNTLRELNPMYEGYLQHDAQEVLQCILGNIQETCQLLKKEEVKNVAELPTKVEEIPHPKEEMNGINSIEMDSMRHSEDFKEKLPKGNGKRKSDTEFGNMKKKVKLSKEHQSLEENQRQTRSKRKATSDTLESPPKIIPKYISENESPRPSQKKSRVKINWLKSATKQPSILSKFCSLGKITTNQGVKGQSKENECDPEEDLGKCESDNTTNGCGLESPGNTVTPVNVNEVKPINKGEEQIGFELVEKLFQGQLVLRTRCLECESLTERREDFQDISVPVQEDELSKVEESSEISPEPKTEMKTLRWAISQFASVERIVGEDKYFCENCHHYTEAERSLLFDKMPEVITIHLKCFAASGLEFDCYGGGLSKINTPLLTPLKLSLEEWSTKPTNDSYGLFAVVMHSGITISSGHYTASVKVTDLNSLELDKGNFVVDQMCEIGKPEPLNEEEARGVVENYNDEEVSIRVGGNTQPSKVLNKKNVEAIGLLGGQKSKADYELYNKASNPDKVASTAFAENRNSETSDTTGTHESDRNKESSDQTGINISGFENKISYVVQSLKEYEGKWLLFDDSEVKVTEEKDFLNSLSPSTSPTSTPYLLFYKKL
Chain of USP1/UAF1 (Q8TAF3 whole entry partner): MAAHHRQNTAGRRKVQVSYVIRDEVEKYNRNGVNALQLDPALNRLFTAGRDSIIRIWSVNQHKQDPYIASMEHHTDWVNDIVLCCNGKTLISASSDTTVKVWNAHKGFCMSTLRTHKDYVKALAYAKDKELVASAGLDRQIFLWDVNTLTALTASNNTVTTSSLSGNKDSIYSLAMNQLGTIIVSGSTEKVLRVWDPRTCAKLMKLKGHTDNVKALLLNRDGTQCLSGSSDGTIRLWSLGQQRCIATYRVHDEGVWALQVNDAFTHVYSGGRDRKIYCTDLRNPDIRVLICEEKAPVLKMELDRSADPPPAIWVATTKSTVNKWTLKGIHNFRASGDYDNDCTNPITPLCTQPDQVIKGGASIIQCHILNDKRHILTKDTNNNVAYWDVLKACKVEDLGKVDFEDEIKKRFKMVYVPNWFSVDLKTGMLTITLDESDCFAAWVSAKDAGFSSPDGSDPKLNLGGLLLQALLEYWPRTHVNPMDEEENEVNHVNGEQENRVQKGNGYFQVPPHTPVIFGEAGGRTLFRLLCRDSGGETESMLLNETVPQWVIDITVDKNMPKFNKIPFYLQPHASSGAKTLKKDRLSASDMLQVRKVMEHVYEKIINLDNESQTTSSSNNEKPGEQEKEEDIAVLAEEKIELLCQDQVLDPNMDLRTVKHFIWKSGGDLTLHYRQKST

A word on the pIC50: it is the IC50 on a negative log10 scale, so that one unit is a factor of ten. Read a low pIC50 as a high IC50. On USP1/UAF1 (Table 1 of Example 8), `FC(F)(F)c1ccccc1-c1ncc2c(NCc3cccs3)cccc2n1` [Compound 1] gave a pIC50 of 5.10.

Molecule `FC(F)(F)c1ccccc1-c1ncc2c(NCc3ccccc3)cccc2n1` [Compound 5] showed a pIC50 against USP1/UAF1 (Table 1 of Example 8) of 5.62.

In the case of `FC(F)(F)c1ccccc1-c1ncc2c(NCc3ccc(-c4ccccc4)cc3)cccc2n1` [Compound 6], the pIC50 on USP1/UAF1 (Table 1 of Example 8) is 5.52.

On to `FC(F)(F)c1ccccc1-c1ncc2c(NCc3ccc4c(c3)OCO4)cccc2n1` [Compound 7], for which the pIC50 against USP1/UAF1 (Table 1 of Example 8) was 5.27.

As to `COc1ccc(CNc2cccc3nc(-c4ccccc4C(F)(F)F)ncc23)cc1` [Compound 8], the pIC50 on USP1/UAF1 (Table 1 of Example 8) was 5.52.

In turn, `Fc1ccc(CNc2cccc3nc(-c4ccccc4C(F)(F)F)ncc23)cc1` [Compound 9] had a pIC50 on USP1/UAF1 (Table 1 of Example 8) of 5.62.

As for `FC(F)(F)c1ccccc1-c1ncc2c(NCc3ccc(Cl)cc3)cccc2n1` [Compound 10], on USP1/UAF1 (Table 1 of Example 8), the pIC50 was 5.52.

On USP1/UAF1 (Table 1 of Example 8), `FC(F)(F)c1ccc(CNc2cccc3nc(-c4ccccc4C(F)(F)F)ncc23)cc1` [Compound 11] showed a pIC50 of 5.27.

Turning to `FC(F)(F)c1ccccc1-c1ncc2c(NCc3ccc(Cl)c(Cl)c3)cccc2n1` [Compound 12], the pIC50 on USP1/UAF1 (Table 1 of Example 8) is 4.96.

At USP1/UAF1 (Table 1 of Example 8), `Cc1ccc(CNc2cccc3nc(-c4ccccc4C(F)(F)F)ncc23)s1` [Compound 13] gave a pIC50 of 5.37.

Regarding `N#Cc1ccc(CNc2cccc3nc(-c4ccccc4C(F)(F)F)ncc23)cc1` [Compound 14], on USP1/UAF1 (Table 1 of Example 8), the pIC50 was 5.47.

Turning to `FC(F)(F)c1ccccc1-c1ncc2c(NCC#Cc3cccnc3)cccc2n1` [Compound 15], the pIC50 at USP1/UAF1 (Table 1 of Example 8) was 5.12.

`FC(F)(F)c1ccccc1-c1ncc2c(NCc3ccc(-c4ccc(Cl)c(Cl)c4)cc3)cccc2n1` [Compound 16] had a pIC50 on USP1/UAF1 (Table 1 of Example 8) of 5.85.

With `FC(F)(F)c1ccccc1-c1ncc2c(NCc3ccc(-c4ccc(Cl)cc4)cc3)cccc2n1` [Compound 17], the pIC50 on USP1/UAF1 (Table 1 of Example 8) is 5.66.

On to `FC(F)(F)c1ccccc1-c1ncc2c(NCc3ccc(-c4cccc(Cl)c4)cc3)cccc2n1` [Compound 18], for which the pIC50 at USP1/UAF1 (Table 1 of Example 8) was 5.77.

In the case of `FC(F)(F)c1ccccc1-c1ncc2c(NCc3ccc(-c4ccncc4)cc3)cccc2n1` [Compound 19], on USP1/UAF1 (Table 1 of Example 8), the pIC50 was 6.32.

On USP1/UAF1 (Table 1 of Example 8), `FC(F)(F)c1ccccc1-c1ncc2c(NCc3ccc(-c4cccnc4)cc3)cccc2n1` [Compound 20] had a pIC50 of 6.21.

Consider `FC(F)(F)c1ccccc1-c1ncc2c(NCc3ccc(-c4cccnc4)cc3)cccc2n1` [Compound 21], for which the pIC50 against USP1/UAF1 (Table 1 of Example 8) was 5.72.

The molecule `FC(F)(F)c1cc(-c2ccc(CNc3cccc4nc(-c5ccccc5C(F)(F)F)ncc34)cc2)ccc1Cl` [Compound 22] showed a pIC50 at USP1/UAF1 (Table 1 of Example 8) of 5.66.

Consider `FC(F)(F)c1ccccc1-c1ncc2c(NCc3ccc(N4CCOCC4)cc3)cccc2n1` [Compound 23], for which the pIC50 on USP1/UAF1 (Table 1 of Example 8) was 5.12.

At USP1/UAF1 (Table 1 of Example 8), `FC(F)(F)c1cc(-c2ccc(CNc3cccc4nc(-c5ccccc5C(F)(F)F)ncc34)cc2)ccn1` [Compound 24] had a pIC50 of 5.37.

For the molecule `FC(F)(F)c1ccccc1-c1ncc2c(NCc3ccc(C4CCCCC4)cc3)cccc2n1` [Compound 25], the pIC50 against USP1/UAF1 (Table 1 of Example 8) is 5.24.

On USP1/UAF1 (Table 3), `CC(C)c1ccccc1-c1nc(NCc2ccc(-c3ccccc3)cc2)c2sccc2n1` [Compound 50] showed a pIC50 of 6.92.

Molecule `CC(C)c1ccccc1-c1nc(NCc2ccc(-c3ccccc3)cc2)c2ccsc2n1` [Compound 51] had a pIC50 on USP1/UAF1 (Table 3) of 6.62.

In the case of `CC(C)c1ccccc1-c1nc(NCc2ccc(-c3ccccc3)cc2)c2nc[nH]c2n1` [Compound 52], the pIC50 at USP1/UAF1 (Table 3) is 5.67.

In turn, `CC(C)c1ccccc1-c1nc2c(c(NCc3ccc(-c4ccccc4)cc3)n1)CCC2` [Compound 53] gave a pIC50 against USP1/UAF1 (Table 3) of 5.82.

`CC(C)c1ccccc1-c1nc(NCc2ccc(-c3ccccc3)cc2)c2cccn2n1` [Compound 54] gave a negative-log IC50 (pIC50) against USP1/UAF1 (Table 3) of 6.66.

In the case of `CC(C)c1ccccc1C1=NC2CNCCC2C(NCc2ccc(-c3ccccc3)cc2)=N1` (centres unmarked) [Compound 55], the pIC50 on USP1/UAF1 (Table 3) was 6.32.

Consider `CC(C)c1ccccc1C1=NC2CCCC2C(NCc2ccc(-c3ccccc3)cc2)=N1` (centres unmarked) [Compound 56], for which, on USP1/UAF1 (Table 3), the pIC50 was 6.85.

For `CC(C)c1ccccc1C1=NC2C=COC2C(NCc2ccc(-c3ccccc3)cc2)=N1` (centres unmarked) [Compound 57], the pIC50 against USP1/UAF1 (Table 3) is 6.82.

Molecule `CC(C)c1ccccc1C1=NCCC(NCc2ccc(-c3ccccc3)cc2)=N1` [Compound 58] showed a pIC50 on USP1/UAF1 (Table 3) of 6.92.

Regarding `CCc1cnc(-c2ccccc2C(C)C)nc1NCc1ccc(-c2ccccc2)cc1` [Compound 60], on USP1/UAF1 (Table 3), the pIC50 is 7.37.

As for `CC(C)c1ccccc1-c1ncc(F)c(NCc2ccc(-c3ccccc3)cc2)n1` [Compound 61], the pIC50 against USP1/UAF1 (Table 3) was 7.21.

As to `CC(C)c1ccccc1-c1ncc(N)c(NCc2ccc(-c3ccccc3)cc2)n1` [Compound 62], the pIC50 against USP1/UAF1 (Table 3) is 6.57.

`CC(C)c1ccccc1-c1ncc(N(C)C)c(NCc2ccc(-c3ccccc3)cc2)n1` [Compound 63] showed a pIC50 at USP1/UAF1 (Table 3) of 6.82.

For the molecule `CSc1cnc(-c2ccccc2C(C)C)nc1NCc1ccc(-c2ccccc2)cc1` [Compound 64], the pIC50 at USP1/UAF1 (Table 3) was 7.07.

`Cc1cc(NCc2ccc(-c3ccccc3)cc2)nc(-c2ccccc2C(C)C)n1` [Compound 65] gave a pIC50 against USP1/UAF1 (Table 3) of 6.32.

On USP1/UAF1 (Table 3), `Cc1nc(-c2ccccc2C(C)C)nc(NCc2ccc(-c3ccccc3)cc2)c1C` [Compound 66] showed a pIC50 of 6.85.

Molecule `Cc1cccc(CNc2nc(-c3ccccc3C(C)C)ncc2C)c1` [Compound 67] had a negative logarithm of the IC50 (pIC50) on USP1/UAF1 (Table 4) of 6.85.

The molecule `Cc1cnc(-c2ccccc2C(C)C)nc1NCc1cccnc1` [Compound 68] gave a pIC50 at USP1/UAF1 (Table 4) of 5.66.

`Cc1cnc(-c2ccccc2C(C)C)nc1NCc1cccs1` [Compound 69] had a pIC50 against USP1/UAF1 (Table 4) of 6.66.

On USP1/UAF1 (Table 4), `Cc1cccc(C(CO)Nc2nc(-c3ccccc3C(C)C)ncc2C)c1` (centres unmarked) [Compound 70] showed a pIC50 of 5.96.

In the case of `Cc1cnc(-c2ccccc2C(C)C)nc1NCC1CCN(C)CC1` [Compound 71], on USP1/UAF1 (Table 4), the pIC50 is 4.52.

`Cc1ccc(-c2ccc(CNc3nc(-c4ccccc4C(C)C)ncc3C)cc2)cn1` [Compound 72]: on USP1/UAF1 (Table 4), the pIC50 was 7.37.

In turn, `Cc1cnc(-c2ccccc2C(C)C)nc1NCc1ccc(-c2ccnc(C(F)(F)F)c2)cc1` [Compound 73] gave a pIC50 on USP1/UAF1 (Table 4) of 6.42.

Consider `Cc1cnc(-c2ccccc2C(C)C)nc1NCC1CCN(c2cccnc2)CC1` [Compound 74], for which the pIC50 against USP1/UAF1 (Table 4) is 7.32.

`Cc1ccc(N2CCC(CNc3nc(-c4ccccc4C(C)C)ncc3C)CC2)cn1` [Compound 75] had a pIC50 against USP1/UAF1 (Table 4) of 5.66.

`Cc1cnc(-c2ccccc2C(C)C)nc1NCC1CCN(c2cnccn2)CC1` [Compound 76] showed a pIC50 at USP1/UAF1 (Table 4) of 6.92.

In the case of `Cc1cnc(-c2ccccc2C(C)C)nc1NCC1CC(c2cccnc2)C1` (centres unmarked) [Compound 77], on USP1/UAF1 (Table 4), the pIC50 was 5.17.

`Cc1cnc(-c2ccccc2C(C)C)nc1NCC1CCN(c2cccnc2)C1` (centres unmarked) [Compound 78]: the pIC50 against USP1/UAF1 (Table 4) was 6.32.

Molecule `Cc1cnc(-c2ccccc2C(C)C)nc1NCc1ccc(-c2ccc(F)nc2)cc1` [Compound 79] showed a pIC50 against USP1/UAF1 (Table 4) of 7.21.

In the case of `Cc1cnc(-c2ccccc2C(C)C)nc1NCc1ccc(C2CCCNC2)cc1` (centres unmarked) [Compound 80], on USP1/UAF1 (Table 4), the pIC50 is 5.12.

In the case of `Cc1cnc(-c2ccccc2C(C)C)nc1NCc1ccc(-c2cnn[nH]2)cc1` [Compound 82], at USP1/UAF1 (Table 4), the pIC50 was 6.62.

On USP1/UAF1 (Table 4), `Cc1cnc(-c2ccccc2C(C)C)nc1NCc1ccc(-c2nnn[nH]2)cc1` [Compound 83] showed a pIC50 of 5.12.

Turning to `Cc1cnc(-c2ccccc2C(C)C)nc1NCc1ccc(C(N)=O)cc1` [Compound 84], on USP1/UAF1 (Table 4), the pIC50 is 5.17.

`Cc1cnc(-c2ccccc2C(C)C)nc1NCC1CCN(C2COC2)CC1` [Compound 85] gave a pIC50 at USP1/UAF1 (Table 4) of 4.82.

At USP1/UAF1 (Table 4), `Cc1cnc(-c2ccccc2C(C)C)nc1NCc1ccc(-c2cccnc2)cc1` [Compound 86] had a pIC50 of 7.21.

The molecule `Cc1cnc(-c2ccccc2C(C)C)nc1NCc1ccc(-c2cc[nH]n2)cc1` [Compound 88] showed a pIC50 against USP1/UAF1 (Table 4) of 6.82.

On USP1/UAF1 (Table 4), `Cc1cnc(-c2ccccc2C(C)C)nc1NC1(c2ccc(-c3cccnc3)cc2)CC1` [Compound 89] showed a pIC50 of 7.47.

Turning to `Cc1cnc(-c2ccccc2C(C)C)nc1NC(C)(C)c1ccc(-c2cccnc2)cc1` [Compound 90], at USP1/UAF1 (Table 4), the pIC50 is 6.72.

For orientation: pEC50 means −log10 of the EC50, conventionally taken in molar units. Consider `N.N.[Cl][Pt][Cl]` [cisplatin, reference compound], for which the pEC50 was 6.31 with H596 cells and 6.20 in the assay on U2OS cells.
